From PubChem BioAssay (NCI)
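A five-concentration, 48-hour dose response in 96-well plates underlies each endpoint, interpolated linearly between surrounding concentrations. GI50: concentration for 50% inhibition of growth. TGI marks complete inhibition of growth.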 *1 amine or outer side, *2 acyl side, *3 side chain or, on linkers, in order; H or OH if unused. Where a SMILES comes first, the peptide text is derived from it. Bridges are numbered along the chain shown (N, C = ends). [ ]: non-standard residue; d: D form. The star is where a group is joined. Phe(3-F) = N[C@@H](Cc1cccc(F)c1)C(=O)O; Pro(4R-Me) = C[C@H]1CN[C@H](C(=O)O)C1; aThr = C[C@H](O)[C@H](N)C(=O)O; Pip = O=C(O)[C@@H]1CCCCN1; X8 = CCc1ccc(N*)c(F)c1; CO = O=C([*:1])[*:2]

Assays:
Assay in all cases: NCI tumour cell line growth inhibition, 48 h
HOP-62 NSCLC = system: HOP-62 NSCLC
IGROV1 ovarian = system: IGROV1 ovarian
UACC-257 melanoma = system: UACC-257 melanoma
EKVX NSCLC = system: EKVX NSCLC
NCI/ADR-RES ovarian = system: NCI/ADR-RES ovarian
HCC-2998 colon = system: HCC-2998 colon
SNB-75 CNS = system: SNB-75 CNS
SK-OV-3 ovarian = system: SK-OV-3 ovarian
NCI-H23 lung = system: NCI-H23 lung
HT29 colon = system: HT29 colon
NCI-H522 lung = system: NCI-H522 lung
HOP-92 NSCLC = system: HOP-92 NSCLC
RPMI-8226 leukemia = system: RPMI-8226 leukemia
K-562 leukemia = system: K-562 leukemia
HCT-116 colon = system: HCT-116 colon
A549 NSCLC = system: A549 NSCLC
KM12 colon = system: KM12 colon
DU-145 prostate = system: DU-145 prostate
SR leukemia = system: SR leukemia
M14 melanoma = system: M14 melanoma
SN12C renal = system: SN12C renal
ACHN renal = system: ACHN renal
MCF7 breast = system: MCF7 breast
A498 renal = system: A498 renal
SF-295 CNS = system: SF-295 CNS
OVCAR-5 ovarian = system: OVCAR-5 ovarian
UO-31 renal = system: UO-31 renal
OVCAR-8 ovarian = system: OVCAR-8 ovarian
HS 578T breast = system: HS 578T breast

Work on CCc1ccc(NC(=O)N[C@@H](Cc2cccc(F)c2)C(=O)N[C@@H]2C(=O)N3CCC[C@H]3C(=O)N3CCCC[C@H]3C(=O)N[C@@H](C)C(=O)N3C[C@H](C)C[C@H]3C(=O)O[C@H]2C)c(F)c1 ({X8-CO}-[Phe(3-F)][aThr]P[Pip]A[Pro(4R-Me)]; ester 2-C) yielded a GI50 (HOP-62 NSCLC) of 562 nM, a TGI (HOP-62 NSCLC) of over 53200 nM and a GI50 (IGROV1 ovarian) of 614 nM. The TGI (IGROV1 ovarian) was over 47700 nM, the GI50 (UACC-257 melanoma) was 319 nM and the TGI (UACC-257 melanoma) was 5320 nM. It also gave a GI50 (EKVX NSCLC) of 367 nM, a TGI (EKVX NSCLC) of over 58100 nM and a GI50 (NCI/ADR-RES ovarian) of 962 nM. It also gave a TGI (NCI/ADR-RES ovarian) of over 51200 nM, a GI50 (HCC-2998 colon) of 353 nM and a TGI (HCC-2998 colon) of 2710 nM. The GI50 (SNB-75 CNS) was 202 nM, the TGI (SNB-75 CNS) was 3590 nM and the GI50 (SK-OV-3 ovarian) was 583 nM. For the same molecule, the GI50 (NCI-H23 lung) was 425 nM, the TGI (NCI-H23 lung) was 20200 nM and the GI50 (HT29 colon) was 352 nM. For the same molecule, the TGI (HT29 colon) was 2750 nM, the GI50 (NCI-H522 lung) was 182 nM and the TGI (NCI-H522 lung) was 6820 nM. For the same molecule, the GI50 (HOP-92 NSCLC) was 380 nM, the TGI (HOP-92 NSCLC) was 6750 nM and the GI50 (RPMI-8226 leukemia) was 55.3 nM. It also gave a TGI (RPMI-8226 leukemia) of 4340 nM, a GI50 (K-562 leukemia) of 52.6 nM and a TGI (K-562 leukemia) of over 56200 nM. The GI50 (HCT-116 colon) was 60.4 nM, the TGI (HCT-116 colon) was 2620 nM and the GI50 (A549 NSCLC) was 509 nM. For the same molecule, the TGI (A549 NSCLC) was over 79500 nM, the GI50 (KM12 colon) was 919 nM and the TGI (KM12 colon) was 18000 nM. It also gave a GI50 (DU-145 prostate) of 285 nM, a TGI (DU-145 prostate) of over 100000 nM and a GI50 (SR leukemia) of 380 nM. For the same molecule, the TGI (SR leukemia) was 10200 nM, the GI50 (M14 melanoma) was 214 nM and the TGI (M14 melanoma) was 2090 nM. It also gave a GI50 (SN12C renal) of 294 nM, a TGI (SN12C renal) of over 57300 nM and a GI50 (ACHN renal) of 503 nM. It also gave a TGI (ACHN renal) of over 53700 nM, a GI50 (MCF7 breast) of 272 nM and a TGI (MCF7 breast) of 19300 nM. For the same molecule, the GI50 (A498 renal) was 616 nM, the TGI (A498 renal) was 7340 nM and the GI50 (SF-295 CNS) was 270 nM. For the same molecule, the TGI (SF-295 CNS) was 1710 nM, the GI50 (OVCAR-5 ovarian) was 439 nM and the TGI (OVCAR-5 ovarian) was 4660 nM. The GI50 (UO-31 renal) was 377 nM, the TGI (UO-31 renal) was 16500 nM and the GI50 (OVCAR-8 ovarian) was 145 nM. The TGI (OVCAR-8 ovarian) was over 100000 nM, the GI50 (HS 578T breast) was 264 nM and the TGI (HS 578T breast) was 4580 nM.
